For one molecule, maximal serum concentration results are on record in patent US9283037B2, “Laser microporator” (PANTEC BIOSOLUTIONS AG, priority 2006, dated 2016).

The series is described as follows: Serum concentration of drug over time after transdermal patch application onto laser-microporated skin (FIG. 9a-9b). The series is classed as in vivo, human. The conditions noted are these: over about two hours. The procedure:
The drug is entering the permeation surface by passive diffusion. The amount of drug entering the permeation surface is mainly determined by the permeation surface A(t) over time. Therefore, the serum concentration as a function of time can be determined by an appropriate poration of the skin 1 with an initial microporation at time TP.
FIG. 9a to 9b show the administration of the same amount of drug, for example 100 mg acetylsalicylic acid, the drug being arranged on the skin 1 as disclosed in FIG. 5e. Depending on the permeation surface A(t) as a function of time, the level of the serum concentration as well as the time period within which the drug is released, can be predescribed. In FIG. 9a the permeation surface A(t) is chosen such that the maximal serum concentration is about 25 g/l over a short period of time of about two hours. […] A further advantage is that the same amount of drug, e.g. the same patch, applied onto the skin 1, causes a different serum concentration, depending only on the function of the permeation surface A over time. This allows administering the same drug in different ways. This also allows administering the same drug in an individual way, in that the permeation surface is created depending on individual parameters of the person the drug is applied to.

Take `CC(=O)Oc1ccccc1C(=O)O` [acetylsalicylic acid]: the maximal serum concentration entry was “about 25 g/l” (FIG. 9a, 100 mg acetylsalicylic acid in patch on microporated skin, transdermal application, chosen permeation surface A(t)) and “about 30 g/l” (FIG. 9b, fast application (turbo), same amount of drug (100 mg) in patch on microporated skin).
